Test results from patent US20220257500A1, “USE OF A HYDRO-ALCOHOLIC EXTRACT OF EVENING PRIMROSE FOR HYDRATING SKIN AND INCREASING BARRIER FUNCTION” (L'OREAL, priority 2019, published 2022).

Experiments:
Assay type in all cases: cell-based
Details in all cases: normal human epidermal keratinocytes, 24 h, normalised to GAPDH
FLG2 (filaggrin 2) = test: RT-qPCR analysis of gene expression, FLG2 transcript
Description: (§1) Normal, human epidermal keratinocytes were used to conduct the study. Normal, human epidermal keratinocytes were seeded in 48-well culture plates and cultured in culture medium for 3 days at 37° C. under 5% CO2 with renewal of the culture medium after the first 24 hours of culture. After incubation, the culture medium was replaced by test medium (supplemented with 1.5 mM CaCl2) containing or not containing (control) the compounds to be tested, and the cells were incubated for 24 hours. All conditions were performed with n=2. After treatment, the culture media were removed and the cells rinsed twice with PBS (w/o CaCl2, w/o MgCl2). Total RNAs were isolated using a magnetic bead extraction kit, following the manufacturer's instructions (MagMAX™-96 Total RNA Isolation Kit, Ambion). Quantification of RNAs and quality control thereof were analysed using Labchip GX (Perkin Elmer). Expression of the selected transcripts was analysed by two-step quantitative PCR. First, the cDNAs were retro-transcribed from the RNAs using the Quantitect® Reverse transcription kit (QIAGEN) following the manufacturer's instructions. The quantitative PCR experiments were performed using a LightCycler® 480 Real-Time PCR System in 384-well plate (Roche) following the incorporation technique of SYBR®Green (Roche) (Table 4). The results are expressed as fold change (Fc) as compared with the non-treated control, after normalising relative expressions in relation to expression of a housekeeping gene (GAPDH). The expression of a gene is considered to be stimulated when it is multiplied at least by 1.5.

[1] = system: SPRR1A (small proline-rich protein 1A); test: RT-qPCR analysis of gene expression, SPRR1A transcript
Description: as §1

[2] = system: LCE3D (late cornified envelope 3D); test: RT-qPCR analysis of gene expression, LCE3D transcript
Description: as §1

CNFN (cornifelin) = test: RT-qPCR analysis of gene expression, CNFN transcript
Description: as §1

Molecule | FLG2 Fold change vs Control (Fc) (FLG2 (filaggrin 2); 0.1 mg/mL) | SPRR1A Fold change vs Control (Fc) ([1]; 0.1 mg/mL) | LCE3D Fold change vs Control (Fc) ([2]; 0.1 mg/mL) | CNFN Fold change vs Control (Fc) (CNFN (cornifelin); 0.1 mg/mL) | FLG2 Fold change vs Control (Fc) (FLG2 (filaggrin 2); 0.004 mg/mL) | SPRR1A Fold change vs Control (Fc) ([1]; 0.004 mg/mL) | LCE3D Fold change vs Control (Fc) ([2]; 0.004 mg/mL) | CNFN Fold change vs Control (Fc) (CNFN (cornifelin); 0.004 mg/mL)
O=c1c(O)c(-c2ccc(O)c(O)c2)oc2cc(O)cc(O)c12 [Quercetin, quercetin] | 0.12 fold change | 0.13 fold change | 0.2 fold change | 0.13 fold change |  |  |  | 
O=c1c(O[C@@H]2O[C@H](CO)[C@@H](O)[C@H](O)[C@H]2O)c(-c2ccc(O)c(O)c2)oc2cc(O)cc(O)c12 [Isoquercitrin, isoquercitrin] | 0.9 fold change | 0.57 fold change | 0.47 fold change | 0.54 fold change |  |  |  | 
oenothein B |  |  |  |  | 1.36 fold change | 1.07 fold change | 0.87 fold change | 0.76 fold change
O=c1oc2c(O)c(O)cc3c(=O)oc4c(O)c(O)cc1c4c23 [Ellagic acid, ellagic acid] |  |  |  |  | 1.22 fold change | 0.96 fold change | 0.51 fold change | 0.64 fold change
O=c1c(O[C@@H]2O[C@H](CO)[C@H](O)[C@H](O)[C@H]2O)c(-c2ccc(O)c(O)c2)oc2cc(O)cc(O)c12 [Hyperoside, hyperoside] | 0.5 fold change | 0.64 fold change | 0.61 fold change | 0.61 fold change |  |  |  | 
O=C(O)[C@H]1O[C@@H](Oc2cc(O)c3c(=O)cc(-c4ccc(O)c(O)c4)oc3c2)[C@H](O)[C@@H](O)[C@@H]1O [Luteoline-7-O-glucuronide, luteoline-7-O-glucuronide] | 0.4 fold change | 0.41 fold change | 0.44 fold change | 0.42 fold change |  |  |  | 
